# Where a SMILES comes first, the peptide text is derived from it.
# Assays:
# [1] = FUTHAN compared with aprotinin and AEBSF; cited from earlier work
# [2] = tested on: Stratum Corneum Tryptic Enzyme (SCTE); settings: reported rosacea study; cited from earlier work
# [3] = molecular target: KLK7/SCCE (Homo sapiens, UniProt P49862); assay: enzyme inhibition KLK7/SCCE; format: biochemical; settings: approximate; read-out: IC50 (50% inhibition) KLK7/SCCE
# Text: (§1) It is understood that aspartame, FUTHAN, and combinations thereof may be utilized.
# [4] = tested on: total protease activity in skin extracts; assay: inhibition of total protease activity in skin extracts; format: biochemical, human; settings: skin extracts from three individuals; FIG. 2
# [5] = tested on: various serine proteases; assay: inhibition of various serine proteases compared with known inhibitors; format: biochemical; settings: FIG. 3
# [6] = molecular target: chymotrypsin (Bos taurus, UniProt P00766); settings: literature (Niinobe et al., Fujii et al.); cited from earlier work
# [7] = molecular target: T1, KLK5/SCTE (Homo sapiens, UniProt Q9Y337); assay: enzyme inhibition KLK5/SCTE; format: biochemical; settings: approximate; read-out: IC50 (50% inhibition) KLK5/SCTE
# T1 sequence (Q9Y337 23-293): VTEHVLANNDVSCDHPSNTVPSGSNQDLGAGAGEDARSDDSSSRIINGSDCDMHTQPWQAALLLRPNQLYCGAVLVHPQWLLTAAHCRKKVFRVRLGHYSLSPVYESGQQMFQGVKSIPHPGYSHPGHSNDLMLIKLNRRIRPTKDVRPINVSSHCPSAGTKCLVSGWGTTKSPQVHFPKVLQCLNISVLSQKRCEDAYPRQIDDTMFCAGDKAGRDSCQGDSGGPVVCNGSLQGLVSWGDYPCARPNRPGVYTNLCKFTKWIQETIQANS
# Text: as §1
# [8] = molecular target: pancreatic kallikrein (Homo sapiens, UniProt P06870); assay: enzyme inhibition pancreatic kallikrein; format: biochemical; settings: approximate; read-out: IC50 (50% inhibition) pancreatic kallikrein
# Text: Enzyme inhibition data was collected for KLK5/SCTE, KLK7/SCCE7, pancreatic kallikrein and trypsin (control).
# [9] = tested on: SRT-ORT mouse model; assay: SRT-ORT osteoarthritis mouse model, aspartame chow, X-ray analyses; format: in vivo; settings: chow containing 4 mg Aspartame/g, 12-18 months, vs non-supplemented chow
# Text: It has been reported that isotopically labeled Aspartame/Asp-Phe distributes to various tissues including the bones (See Aspartame Physiology and Biochemistry, Ed. Stegink, Lewis, D. and Filner, L. J. (1984), Marcel Decker, NY, Chapter 8, “Tissue Distribution of Orally Administered Isotopically Labeled Aspartame in Rat.” By Matsuzawa, Y., O'Hara, Y., pp. 161-199.). It is well established that the ester group on aspartame is labile to both acid hydrolysis, as exists in the stomach, and to enzyme esterases that are common to all body fluids and tissues. […] It is contemplated that this mechanism will enhance the transfer of essential minerals from the digestive system to the blood, tissues, and cells. Further evidence that aspartame (Asp-Phe) ingestion contributes to muscle (tissue) density and bone density enhancement comes from mouse studies. The SRT-ORT mouse model is a genetically deficient mouse strain obtained from NIH with a natural history of developing osteoarthritis. Blinded experiments were conducted with littermates divided into two groups, one fed chow containing 4 mg Aspartame/g. and the other fed non-supplemented chow over a period of 12-18 months. X-ray analyses were performed on the cortex and marrow spaces of the right and left femurs, as well as the quadriceps in the femoris area and joint calcification. […] The increase in calcification in the treated animal cohort at the injured joints gave a P value <0.0001. An unexpected increase in quadriceps muscle mass index for the treated animals gave a P value of 0.0185. These analyses were preformed on an n value of 23 animals in the treated set and 18 animals in the controls. Therefore, it is contemplated that animals fed aspartame over an extended time period have increased bone density and muscle mass indicating increased or enhanced calcium, and perhaps other minerals, bioavailability and utility.
# [10] = pigs fed aspartame over a two month period: bleeding time and platelet count; format: in vivo; settings: pigs fed 75-300 mg aspartame/100 weight/day over a two month period
# Text: Recent chemical evidence has documented the mechanism of the analgesia and blood thinning properties of ASP as attributable in part to the compound's ability to inhibit the cyclo-oxygenase enzymes known as COX-1 and COX-2. […] It is contemplated that a preferred embodiment may use a coated tablet or pill that may prevent or reduce hydrolysis of the aspartame ester group in the acidic conditions of the stomach.
# [11] = chronic anemia patients using fruit flavored drink with aspartame; format: in vivo, human; settings: fruit flavored drink combination with aspartame
# Text: The current invention may utilize a pharmaceutically effective amount of aspartame or Asp-Phe for the treatment of sickle cell anemia and or chronic anemia in general. […] It is also contemplated that the current invention may be utilized as a food supplement product with beneficial attributes to chronic anemia patients which may include most cancer patients under treatment.
# [12] = molecular target: COX-1 (Homo sapiens, UniProt P23219); assay: COX-1 enzyme inhibition
# [13] = bone density in human subjects ingesting aspartame (bone scans, dental records); settings: subject
# [14] = aspartame lotion on acetic acid burn; format: in vivo, human; settings: lotion application; burn from acetic acid spilled on an individual's leg
# Text: It is also contemplated that the current invention may also help the redness of the skin and/or promote healing for the same injury.
# [15] = molecular target: T2, COX-2 (Homo sapiens, UniProt P35354); assay: COX-2 enzyme inhibition
# T2 sequence (P35354 18-604): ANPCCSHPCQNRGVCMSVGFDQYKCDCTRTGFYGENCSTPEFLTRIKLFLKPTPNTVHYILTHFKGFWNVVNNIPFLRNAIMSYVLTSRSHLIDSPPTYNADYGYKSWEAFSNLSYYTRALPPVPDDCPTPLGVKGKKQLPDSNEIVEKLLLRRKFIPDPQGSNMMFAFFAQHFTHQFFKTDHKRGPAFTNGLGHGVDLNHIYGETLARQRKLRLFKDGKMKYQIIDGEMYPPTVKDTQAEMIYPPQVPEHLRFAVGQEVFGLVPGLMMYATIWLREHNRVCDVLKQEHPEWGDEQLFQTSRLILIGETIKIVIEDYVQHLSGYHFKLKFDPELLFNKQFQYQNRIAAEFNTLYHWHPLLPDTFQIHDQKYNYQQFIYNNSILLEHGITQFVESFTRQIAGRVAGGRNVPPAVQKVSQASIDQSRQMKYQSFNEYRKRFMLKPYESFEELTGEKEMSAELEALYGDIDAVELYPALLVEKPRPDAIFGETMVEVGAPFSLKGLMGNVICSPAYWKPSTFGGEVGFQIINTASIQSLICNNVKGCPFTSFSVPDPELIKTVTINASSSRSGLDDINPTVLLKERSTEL
# [16] = in excess of 300 mg/day for several years
# COX-1, sequence (P23219 24-599): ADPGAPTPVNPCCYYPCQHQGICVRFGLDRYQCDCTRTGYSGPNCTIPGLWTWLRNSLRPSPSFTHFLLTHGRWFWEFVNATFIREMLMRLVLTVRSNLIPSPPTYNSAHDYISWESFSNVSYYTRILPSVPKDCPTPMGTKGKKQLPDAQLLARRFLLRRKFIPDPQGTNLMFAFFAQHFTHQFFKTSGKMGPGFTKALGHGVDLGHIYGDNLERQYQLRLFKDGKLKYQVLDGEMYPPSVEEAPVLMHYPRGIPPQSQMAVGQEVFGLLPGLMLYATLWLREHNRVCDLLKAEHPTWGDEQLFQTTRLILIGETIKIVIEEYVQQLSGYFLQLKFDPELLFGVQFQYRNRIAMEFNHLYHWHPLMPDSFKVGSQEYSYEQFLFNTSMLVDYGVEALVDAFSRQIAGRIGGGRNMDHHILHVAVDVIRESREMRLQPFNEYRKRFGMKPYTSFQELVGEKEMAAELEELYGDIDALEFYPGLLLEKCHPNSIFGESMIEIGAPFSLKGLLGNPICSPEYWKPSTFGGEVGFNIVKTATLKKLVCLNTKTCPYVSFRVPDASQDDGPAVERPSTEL
# pancreatic kallikrein, sequence (P06870 25-262): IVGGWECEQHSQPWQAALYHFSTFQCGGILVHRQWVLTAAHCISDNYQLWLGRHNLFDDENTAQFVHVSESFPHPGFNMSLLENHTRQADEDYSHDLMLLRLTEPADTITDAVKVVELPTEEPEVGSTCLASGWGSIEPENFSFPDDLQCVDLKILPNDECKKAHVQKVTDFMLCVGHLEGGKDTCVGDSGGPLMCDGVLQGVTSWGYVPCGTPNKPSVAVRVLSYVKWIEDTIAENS
# KLK7/SCCE, sequence (P49862 30-253): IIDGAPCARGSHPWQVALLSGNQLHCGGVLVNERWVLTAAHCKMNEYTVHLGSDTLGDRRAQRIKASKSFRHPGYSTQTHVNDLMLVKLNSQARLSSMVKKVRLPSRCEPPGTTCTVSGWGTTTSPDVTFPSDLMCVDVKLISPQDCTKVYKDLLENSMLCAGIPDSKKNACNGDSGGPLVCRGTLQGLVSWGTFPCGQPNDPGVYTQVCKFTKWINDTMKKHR
molecule,measurement,setting,value
"NCCc1ccc(S(=O)(=O)F)cc1 [AEBSF, 4-(2-aminoethyl)-benzenesulfonyl fluoride]",toxicity / side effects,[1],known serious side effects
same,inhibition of SCTE,[2],effective in inhibiting this enzyme
"CS(=O)(=O)O.CS(=O)(=O)O.N=C(N)Nc1ccc(C(=O)Oc2ccc3cc(C(=N)N)ccc3c2)cc1 [FUTHAN, 6-amidino-2-naphthyl p-guanidinobenzoate dimethanesulfonate]",IC50,[3],~80 µM
same,inhibition of total protease activity in skin extracts,[4],efficacy of the inhibitor
same,inhibitor strength compared with aprotinin and AEBSF,[5],weaker
same,inhibition of chymotrypsin or enzymes with chymotrypsin specificity,[6],not chymotrypsin
same,IC50,[7],~2 µM
same,IC50,[8],~20 µM
"COC(=O)[C@H](Cc1ccccc1)NC(=O)[C@@H](N)CC(=O)O [aspartame, N-L-alpha-aspartyl-L-phenylalanine 1-methyl ester] (H-Asp-Phe-OMe)",calcification at the injured joints,[9]; P value <0.0001,increase
same,cortical bone density,[9]; P value of 0.0058,increase
same,quadriceps muscle mass index,[9]; P value of 0.0185,increase
same,bleeding times,[10],significantly increased
same,platelet counts,[10],elevated
same,energy and muscle pain in chronic anemia patients,[11],more energy and less muscle pain
same,IC50,[12],< 1 µM
same,bone density from dental records,[13]; 150-300 mg/day over several years,bone density increase
same,"density of the right and left femur, mean",[13]; [16],1.2 g/cm2
same,femur density relative to the density of a young adult,[13]; [16],122%
same,lumbar spine bone density (L1-L4),[13]; [16],1.74 g/cm2
same,lumbar spine bone density relative to the density of a young adult,[13]; [16],148%
same,pain associated with a burn,[14],relieved the pain
same,IC50,[15],< 1 µM
Aprotinin,toxicity / side effects,[1],known serious side effects
same,inhibition of SCTE,[2],effective in inhibiting this enzyme

# — patent publication US20090036528A1 (priority 2007, published 2009)
